Experimental data taken from patent US9090593B2, “Bicyclic compounds as Pim inhibitors” (AMGEN INC., priority 2010, dated 2015).
Read-outs that look alike come from different tables or passages of the source.

Experiments:
[1] = target: T1, full length recombinant Pim-1 protein (Homo sapiens, UniProt P11309); assay: Pim-1 enzyme assay (HTRF, phosphorylation of biotinylated-BAD (S112) peptide); assay type: biochemical; settings: read-out: Pim_1_IC50
T1 construct: by full length recombinant Pim-1, Pim-2, or Pim-3 protein; hexahistidine tag followed by a thrombin cleavage site (N); made in house; host or cells: Sf9 (baculovirus) or E. coli (pET28)
Method in brief: (§1)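 HTRF readout (europium anti-pBAD S112 antibody, streptavidin-APC) of biotin-BAD peptide phosphorylation by recombinant full-length Pim-1 or Pim-2, buffer 60 mM Hepes pH 7.0, 2 mM DTT, 0.05% BSA. Enzymes were His6-tagged, from baculovirus/Sf9 or E. coli.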

[2] = target: T2, Pim-2 stably transfected into the U2OS human osteogenic sarcoma line (Homo sapiens, UniProt Q9P1W9); assay: Pim cell assay, phospho-BAD normalized against total BAD, U2OS stably transfected with Pim-2; assay type: cell-based
T2 construct: expressed in transfected cells; host or cells: U2OS human osteogenic sarcoma line
Procedure: (§2) The cell lines used in the assay were generated by the stable transfection of either Pim-1 or Pim-2 into the U2OS human osteogenic sarcoma line. The assay for determination of the Pim activity in the engineered U2OS cell lines measures levels of phospho-BAD normalized against total BAD protein levels. It was conducted as follows:
(§3) The adherent cells were dissociated from the flasks using non-enzymatic cell dissociation solution (Sigma # C5914). […] The cells were then incubated overnight at 37° C., 5% CO2.
(§4) In addition to the 10-point dosing curve of the test compound, DMSO alone was run as the high control.
(§5) This dilution in DMSO was then diluted again into cell growth medium. Aliquots (12 uL) of the compound diluted in growth medium were then transferred to the appropriate wells of the 96-well plates containing cells to yield a final DMSO concentration of 0.3%.
(§6) The cell plates containing lysis buffer were then immediately stored at −70° C.
(§7) These prepared lysates were then assayed for phospho and total BAD according to the manufacturer's protocols (Meso Scale Diagnostics, Cat# K15103C-3 & # K15103D-3). The plates were read on the MSD Sector Imager 6000, and results were calculated according to the assay protocols ((% Phosphoprotein=((2×Phospho signal)/(Phospho signal+Total signal))×100)).

[3] = target: T3, full length recombinant Pim-2 protein (Homo sapiens, UniProt Q9P1W9); assay: Pim-2 enzyme assay (HTRF, phosphorylation of biotinylated-BAD (S112) peptide); assay type: biochemical; settings: read-out: Pim2_IC50
T3 construct: by full length recombinant Pim-1, Pim-2, or Pim-3 protein; hexahistidine tag followed by a thrombin cleavage site (N); made in house; host or cells: Sf9 (baculovirus) or E. coli (pET28)
Method in brief: as §1

[4] = target: T4, Pim-1 stably transfected into the U2OS human osteogenic sarcoma line (Homo sapiens, UniProt P11309); assay: Pim cell assay, phospho-BAD normalized against total BAD, U2OS stably transfected with Pim-1; assay type: cell-based
T4 construct: expressed in transfected cells; host or cells: U2OS human osteogenic sarcoma line
Procedure: as §2, §3, §4, §5, §6, §7

[5] = U2OS stably transfected with Pim-2, phospho-BAD normalized against total BAD, 29 min incubation, read-out: Pim2_Cell_IC50_
[6] = U2OS stably transfected with Pim-1, phospho-BAD normalized against total BAD, 29 min incubation, read-out: Pim1_Cell_IC50_

T2 sequence (Q9P1W9 whole entry): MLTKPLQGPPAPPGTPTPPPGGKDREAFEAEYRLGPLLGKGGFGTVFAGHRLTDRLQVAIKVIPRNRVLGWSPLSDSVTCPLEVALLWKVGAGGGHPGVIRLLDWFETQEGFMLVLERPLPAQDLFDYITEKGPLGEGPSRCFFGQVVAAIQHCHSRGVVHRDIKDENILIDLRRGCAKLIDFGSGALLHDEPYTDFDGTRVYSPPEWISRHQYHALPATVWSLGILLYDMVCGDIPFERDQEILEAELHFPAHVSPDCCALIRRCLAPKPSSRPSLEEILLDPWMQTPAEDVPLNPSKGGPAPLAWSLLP
T3 sequence (Q9P1W9 whole entry): as above
T4 sequence (P11309 whole entry): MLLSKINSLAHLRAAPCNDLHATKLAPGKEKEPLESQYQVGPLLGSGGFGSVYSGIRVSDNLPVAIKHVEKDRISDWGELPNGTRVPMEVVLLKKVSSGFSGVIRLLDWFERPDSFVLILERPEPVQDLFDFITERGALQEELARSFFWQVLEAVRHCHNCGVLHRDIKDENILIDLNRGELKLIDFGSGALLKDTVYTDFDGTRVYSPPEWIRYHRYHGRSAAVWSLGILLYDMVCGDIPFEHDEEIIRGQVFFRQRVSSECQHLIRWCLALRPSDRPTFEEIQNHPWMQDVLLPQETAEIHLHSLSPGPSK
T1 sequence (P11309 whole entry): as above

Row | SMILES | IC50 ([1]; enzyme assay, Pim-1) [nM] | IC50 ([2]; read-out: Pim2_Cell_IC50) [nM] | IC50 ([3]; enzyme assay, Pim-2) [nM] | IC50 ([4]; read-out: Pim1_Cell_IC50) [nM] | IC50 [1] [nM] | IC50 [2, 5] [nM] | IC50 [3] [nM] | IC50 [4, 6] [nM]
1 | COc1cncc(-c2ccc3[nH]nc(-c4ccnc(N5CCC(N)CC5)n4)c3c2)c1 [Example 30, 1-(4-(5-(5-Methoxypyridin-3-yl)-1H-indazol-3-yl)pyrimidin-2-yl)piperidin-4-amine] | 1 | 2240 | 7 | 89 | – | – | – | –
2 | Fc1cnccc1-c1ccc2[nH]cc(-c3cncc(O[C@@H]4CCCNC4)n3)c2c1 [Example 297, 5-(3-fluoro-4-pyridinyl)-3-(6-((3R)-3-piperidinyloxy)-2-pyrazinyl)-1H-indole] | – | – | – | – | 3 | 8450 | 7 | 166
3 | FCCOc1cncc(-c2n[nH]c3ccc(-c4cncc(C5CC5)n4)cc23)n1 [Example 384] | – | – | – | – | 4 | > 31600 | 27 | 207
4 | CC(C)Nc1nc(-c2c[nH]c3ccc(-c4cncc(C5CC5)n4)cc23)cc(=O)[nH]1 [Example 287, 6-(5-(6-cyclopropylpyrazin-2-yl)-1H-indol-3-yl)-2-(isopropylamino) pyrimidin-4(3H)-one] | – | – | – | – | 6 | > 31600 | 87 | 1310
5 | c1cc(-c2ccc3[nH]cc(-c4cncc(O[C@@H]5CCCNC5)n4)c3c2)nc(N2CCNCC2)c1 [Example 299] | – | – | – | – | 3 | > 31600 | 231 | 1270
6 | c1cc2[nH]nc(-c3cncc(O[C@H]4CNCCC45CC5)n3)c2cc1N1CCOCC1 [Example 400] | – | – | – | – | 17 | 8650 | 25 | 1130
7 | N#Cc1ncccc1-c1ccc2[nH]cc(-c3cncc(O[C@@H]4CCCNC4)n3)c2c1 [Example 333] | – | – | – | – | 11 | > 10000 | 40 | 803
8 | CC(C)Oc1nc(-c2n[nH]c3ccc(-c4c(F)cccc4F)cc23)cc(=O)[nH]1 [Example 528] | – | – | – | – | 13 | > 15800 | 36 | 779
9 | CC(C)(O)CNc1cncc(-c2n[nH]c3ccc(-c4cncc(C5CC5)n4)cc23)n1 [Example 392] | – | – | – | – | 13 | > 10000 | 66 | 212
10 | c1cc(N2CCOCC2)ccc1-c1ccc2[nH]cc(-c3cncc(O[C@@H]4CCCNC4)n3)c2c1 [Example 309, 5-(4-(4-morpholinyl)phenyl)-3-(6-((3R)-3-piperidinyloxy)-2-pyrazinyl)-1H-indole] | – | – | – | – | 4 | 17000 | 18 | 125
11 | OCc1ccc(-c2ccc3[nH]cc(-c4cncc(O[C@@H]5CCCNC5)n4)c3c2)cc1 [Example 316, (4-(3-(6-((3R)-3-piperidinyloxy)-2-pyrazinyl)-1H-indol-5-yl)phenyl)methanol] | – | – | – | – | 2 | 3400 | 9 | 103
12 | Oc1cc(N[C@@H]2CCCNC2)nc(-c2c[nH]c3ccc(-c4c(F)cccc4F)cc23)n1 [Example 515] | – | – | – | – | 3 | > 31600 | 7 | 12000
13 | COc1ccc(-c2ccc3[nH]cc(-c4cncc(O[C@@H]5CCCNC5)n4)c3c2)cc1OC [Example 345] | – | – | – | – | 20 | > 15800 | 157 | 729
14 | Nc1cncc(-c2ccc3[nH]nc(-c4cncc(OCCF)n4)c3c2)n1 [Example 386, 6-(3-(6-(2-fluoroethoxy)-2-pyrazinyl)-1H-indazol-5-yl)-2-pyrazinamine] | – | – | – | – | 6 | > 31600 | 11 | 61
15 | c1cc(-c2ccc3[nH]nc(-c4cncc(O[C@@H]5CCCNC5)n4)c3c2)nc(NC2CC2)n1 [Example 242, N-cyclopropyl-4-(3-(6-((3R)-3-piperidinyloxy)-2-pyrazinyl)-1H-indazol-5-yl)-2-pyrimidinamine] | – | – | – | – | 5 | 31500 | 108 | 369
16 | CC(C)Nc1cncc(-c2n[nH]c3ccc(-c4cncc(C5CC5)n4)cc23)n1 [Example 368, 6-(5-(6-cyclopropyl-2-pyrazinyl)-1H-indazol-3-yl)-N-(1-methylethyl)-2-pyrazinamine] | – | – | – | – | 6 | 1770 | 37 | 23
17 | NC1CCN(c2nc(-c3c[nH]c4ccc(-c5c(F)cccc5F)cc34)cc(=O)[nH]2)CC1 [Example 277, 2-(4-aminopiperidin-1-yl)-6-(5-(2,6-difluorophenyl)-1H-indol-3-yl)pyrimidin-4(3H)-one] | – | – | – | – | 1 | > 31600 | 2 | 2470
18 | CC1(C)CNCCC1Oc1cncc(-c2n[nH]c3ccc(-c4c(F)cccc4F)cc23)n1 (single isomer, unassigned) [Example 433] | – | – | – | – | 2 | > 10000 | 22 | 801
19 | NC1CCN(c2cncc(-c3n[nH]c4ccc(-c5nccc6[nH]ccc56)cc34)n2)CC1 [Example 507] | – | – | – | – | 3 | > 31600 | 65 | > 31600
20 | CC(C)Oc1cncc(-c2ccc3[nH]cc(-c4nnc(N5CCC[C@H](N)C5)o4)c3c2)n1 [Example 510] | – | – | – | – | 17 | > 31600 | 78 | 1010
21 | c1cc2[nH]nc(-c3cncc(O[C@@H]4CCNCC45CC5)n3)c2cc1-c1cncc(C2CC2)n1 [Example 373, 3-(6-((8R)-5-azaspiro[2.5]oct-8-yloxy)-2-pyrazinyl)-5-(6-cyclopropyl-2-pyrazinyl)-1H-indazole] | – | – | – | – | 1 | 3370 | 5 | 130
22 | CC(=O)Nc1ccc(-c2ccc3[nH]cc(-c4cncc(O[C@@H]5CCCNC5)n4)c3c2)cc1 [Example 327] | – | – | – | – | 5 | 8060 | 19 | 666
23 | CC(C)Oc1cncc(-c2ccc3[nH]cc(-c4nnc(N[C@@H]5CCCNC5)o4)c3c2)n1 [Example 518] | – | – | – | – | 25 | > 31600 | 97 | 6920
24 | c1cc2[nH]nc(-c3cncc(C4CC4)n3)c2cc1-c1cncc(C2CC2)n1 [Example 244, 3,5-bis(6-cyclopropyl-2-pyrazinyl)-1H-indazole] | – | – | – | – | 1 | > 10000 | 3 | 169
25 | c1cc(-c2ccc3[nH]nc(-c4cncc(O[C@@H]5CCCNC5)n4)c3c2)nc(C2CC2)n1 [Example 361] | – | – | – | – | 12 | > 31600 | 71 | 2070
26 | c1cc2[nH]nc(-c3cncc(OC4CCNCC45CC5)n3)c2cc1-c1cncc(C2CC2)n1 (centres unmarked) [Example 372] | – | – | – | – | 1 | > 10000 | 7 | 200
27 | c1cc2c(cc1-c1ccc3[nH]cc(-c4cncc(O[C@@H]5CCCNC5)n4)c3c1)OCO2 [Example 343] | – | – | – | – | 4 | > 15800 | 19 | 1210
28 | COc1cc(OC)cc(-c2ccc3[nH]cc(-c4cncc(O[C@@H]5CCCNC5)n4)c3c2)c1 [Example 294] | – | – | – | – | 7 | 9440 | 26 | 521
29 | CC(C)Oc1cccc(-c2ccc3[nH]cc(-c4cncc(O[C@@H]5CCCNC5)n4)c3c2)c1 [Example 360] | – | – | – | – | 8 | > 15800 | 94 | 2720
